Reference: the supplement of paper PMC10307832

Assays:
Assay in all cases: relative viability (nuclei count vs DMSO), 5 days (fraction); higher = more cells survive
[1] = compound: C[C@]1(O)C[C@@H](c2nc(-c3ccc4ccc(-c5ccccc5)nc4c3)c3c(N)nccn32)C1 [Linsitinib] + Nc1nc2[nH]cc(CCc3ccc(C(=O)N[C@@H](CCC(=O)O)C(=O)O)cc3)c2c(=O)[nH]1 [Pemetrexed] (partner 0.2 µM)
In short: (§1)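 Relative viability was taken as the ratio of nuclei in treated wells to nuclei in vehicle wells. Lung cancer cell lines in 1536-well plates received compounds by pin tool one day after seeding, either one drug alone or a fixed anchor-drug dose plus five library-drug doses (not always all listed) in √10 steps. Nuclei were counted on 4× images after 5 days of treatment, and values are medians of duplicate plates.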

[2] = compound: C[C@]1(O)C[C@@H](c2nc(-c3ccc4ccc(-c5ccccc5)nc4c3)c3c(N)nccn32)C1 [Linsitinib] + O=C(CCCCCCC(=O)Nc1ccccc1)NO [Vorinostat] (partner 1 µM)
In short: as §1

[3] = compound: Cc1ccc(C(=O)N(CCCN)[C@@H](c2nc3cc(Cl)ccc3c(=O)n2Cc2ccccc2)C(C)C)cc1 [Ispinesib] + CCNC(=O)c1noc(-c2cc(C(C)C)c(O)cc2O)c1-c1ccc(CN2CCOCC2)cc1 [Luminespib] (partner 0.01 µM)
In short: as §1

[4] = compound: C[C@]1(O)C[C@@H](c2nc(-c3ccc4ccc(-c5ccccc5)nc4c3)c3c(N)nccn32)C1 [Linsitinib] + CS(=O)(=O)CCNCc1ccc(-c2ccc3ncnc(Nc4ccc(OCc5cccc(F)c5)c(Cl)c4)c3c2)o1 [Lapatinib] (partner 2 µM)
In short: as §1

| Cell Line | relative viability ([1]; first compound 0.01 µM) | relative viability ([1]; first compound 0.03162 µM) | relative viability ([1]; first compound 0.1 µM) | relative viability ([1]; first compound 0.3162 µM) | relative viability ([1]; first compound 1 µM) | relative viability ([2]; first compound 0.01 µM) | relative viability ([2]; first compound 0.03162 µM) | relative viability ([2]; first compound 0.1 µM) | relative viability ([2]; first compound 0.3162 µM) | relative viability ([2]; first compound 1 µM) | relative viability ([3]; first compound 0.001 µM) | relative viability ([3]; first compound 0.003162 µM) | relative viability ([3]; first compound 0.01 µM) | relative viability ([3]; first compound 0.03162 µM) | relative viability ([3]; first compound 0.1 µM) | relative viability ([4]; first compound 0.01 µM) | relative viability ([4]; first compound 0.03162 µM) | relative viability ([4]; first compound 0.1 µM) | relative viability ([4]; first compound 0.3162 µM) | relative viability ([4]; first compound 1 µM) |
| --- | --- | --- | --- | --- | --- | --- | --- | --- | --- | --- | --- | --- | --- | --- | --- | --- | --- | --- | --- | --- |
| NCI-H522 | 0.831 | 0.839 | 1.01 | 0.652 | 0.839 | 0.892 | 1 | 0.791 | 0.499 | 0.727 | 1.02 | 1.1 | 1.17 | 0.922 | 1.11 |  |  |  |  |  |
| PC-3 [JPC-3] | 1.13 | 1.04 | 1.2 | 0.891 | 0.665 | 0.78 | 0.784 | 0.843 | 0.492 | 0.571 | 0.716 | 0.853 | 0.75 | 0.748 | 0.548 | 0.43 | 0.455 | 0.405 | 0.369 | 0.373 |
| NCI-H1703 |  |  |  |  |  |  |  |  |  |  |  |  |  |  |  | 1.06 |  | 1.52 | 1.38 | 1.09 |
| EPLC-272H | 0.366 | 0.193 | 0.325 | 0.244 | 0.32 | 0.533 | 0.383 | 0.548 | 0.297 | 0.484 | 0.215 | 0.326 | 0.25 | 0.196 | 0.234 | 0.977 | 0.948 | 0.999 |  | 0.736 |
| NCI-H1792 | 1.05 | 0.695 | 0.891 | 0.51 | 0.321 |  |  |  |  |  | 0.821 | 0.435 | 0.705 | 0.443 | 0.471 | 0.903 | 0.847 | 0.706 | 0.667 | 0.649 |
| NCI-H2085 | 0.887 | 0.887 | 0.934 | 0.928 | 0.905 | 0.778 | 0.707 | 0.791 | 0.8 | 0.681 | 0.484 | 0.421 | 0.491 | 0.401 | 0.447 | 0.701 | 0.822 | 0.822 | 0.753 | 0.658 |
| LK-2 | 0.123 | 0.285 | 0.148 | 0.215 | 0.153 | 0.237 | 0.335 | 0.178 | 0.275 | 0.176 | 0.186 | 0.174 | 0.226 | 0.224 | 0.202 | 0.899 | 0.995 | 0.844 | 0.657 | 0.695 |
| NCI-H1395 | 0.77 |  | 0.979 | 0.673 | 0.835 | 0.671 |  | 0.821 | 0.68 | 0.644 | 0.793 | 0.769 | 0.817 | 0.655 | 0.447 | 1.08 | 0.803 | 1.12 | 0.83 | 0.906 |
| ABC-1 |  |  |  |  |  | 1.4 | 1.2 | 0.97 | 0.803 | 0.796 |  | 0.598 | 0.613 | 0.369 | 0.469 | 1.13 | 1.5 | 1.32 | 1.34 | 1.21 |
| RERF-LC-KJ | 0.414 | 0.461 | 0.48 | 0.349 | 0.491 | 0.552 | 0.608 | 0.649 | 0.293 | 0.455 | 1.49 | 1.2 | 0.958 | 0.259 | 0.442 | 0.8 | 0.846 | 0.826 | 0.554 | 0.645 |
